The assay concerns the target T1, recombinant human Seprase (rhuSeprase) (Homo sapiens, UniProt Q12884).
T1 construct: named pCEP4-IgKappa-huSeprase-coCHO_26-760aa-H6 and used for the generation of recombinant soluble human Seprase (rhuSeprase); mouse Ig kappa-chain V-J2-C secretion signal (N, cleaved yes); made in house; host or cells: FreeStyle CHO-S cells (transient transfection; purified from supernatant by Ni-chelate and SEC)
T1 sequence (Q12884 26-760): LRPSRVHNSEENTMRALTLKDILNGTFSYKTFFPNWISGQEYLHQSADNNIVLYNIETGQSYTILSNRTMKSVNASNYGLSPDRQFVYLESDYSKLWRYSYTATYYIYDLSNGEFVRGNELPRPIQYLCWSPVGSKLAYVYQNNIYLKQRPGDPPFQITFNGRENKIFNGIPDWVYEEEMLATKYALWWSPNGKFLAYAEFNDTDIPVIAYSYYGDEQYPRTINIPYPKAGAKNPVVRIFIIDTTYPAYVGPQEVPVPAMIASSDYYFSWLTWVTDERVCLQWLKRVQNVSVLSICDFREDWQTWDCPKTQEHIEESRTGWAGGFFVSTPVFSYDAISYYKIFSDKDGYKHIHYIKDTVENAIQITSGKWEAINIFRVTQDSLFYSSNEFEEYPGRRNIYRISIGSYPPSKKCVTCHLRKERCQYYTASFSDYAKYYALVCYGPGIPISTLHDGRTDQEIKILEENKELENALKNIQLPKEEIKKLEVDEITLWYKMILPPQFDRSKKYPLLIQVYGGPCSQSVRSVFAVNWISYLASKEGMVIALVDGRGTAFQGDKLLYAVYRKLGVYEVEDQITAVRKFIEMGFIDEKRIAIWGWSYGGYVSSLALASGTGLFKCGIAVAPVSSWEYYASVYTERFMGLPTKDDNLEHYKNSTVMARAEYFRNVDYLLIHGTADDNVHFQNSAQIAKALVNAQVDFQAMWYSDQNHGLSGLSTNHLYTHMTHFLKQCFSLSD
The assay is described as follows: Surface plasmon resonance (Biacore T100) on immobilized rhuSeprase. The class given is binding. In general terms: In SPR one partner is held on a chip, and binding of the other changes the refractive index at the surface.

Structures are written as SMILES.

Here are results for one compound from US10370433B2, “Compositions and methods for diagnosis and treatment of cancer” (BIONTECH AG, priority 2015, dated 2019).

For `CC[C@H](C)[C@@H]1NC(=O)[C@@H]2CSSC[C@H](NC(=O)[C@H](C)NC(=O)CNC(=O)[C@H](CO)NC(=O)CNC(=O)CON=CC(=O)NCCCC[C@H](NC(=O)[C@H](CO)NC(=O)CNC(=O)[C@H](CO)NC(=O)CNC(=O)[C@H](CCCCNC(=O)C=NOCC(=O)NCC(=O)N[C@@H](CO)C(=O)NCC(=O)N[C@@H](C)C(=O)N[C@H]3CSSC[C@@H]4NC(=O)[C@H](CCCNC(=N)N)NC(=O)CNC(=O)[C@@H]5CCCN5C(=O)[C@@H]5CSSC[C@@H](C(=O)NCC(=O)O)NC(=O)[C@H](Cc6ccc(O)cc6)NC(=O)CNC(=O)[C@H](CC(N)=O)NC(=O)CNC(=O)[C@H](CCCNC(=N)N)NC(=O)[C@H](CSSC[C@H](NC(=O)[C@H](CC(=O)O)NC(=O)[C@@H]6CCCN6C(=O)CNC(=O)[C@H](CCCNC(=N)N)NC(=O)CNC(=O)[C@@H]6CCCN6C(=O)[C@H]([C@@H](C)O)NC(=O)[C@H](Cc6c[nH]c7ccccc67)NC(=O)[C@H](CC(N)=O)NC(=O)[C@H](CO)NC(=O)[C@H](Cc6ccc(O)cc6)NC(=O)[C@@H]6CCCN6C3=O)C(=O)N[C@@H](CCCNC(=N)N)C(=O)N[C@@H](CCCNC(=N)N)C(=O)N[C@@H](CC(=O)O)C(=O)N[C@@H](CO)C(=O)N[C@@H](CC(=O)O)C(=O)N5)NC(=O)[C@H]([C@@H](C)CC)NC4=O)NC(=O)[C@H](CO)NC(=O)CNC(=O)[C@H](CO)NC(=O)CNC(=O)[C@H](CCCCNC(=O)C=NOCC(=O)NCC(=O)N[C@@H](CO)C(=O)NCC(=O)N[C@@H](C)C(=O)N[C@H]3CSSC[C@@H]4NC(=O)[C@H](CCCNC(=N)N)NC(=O)CNC(=O)[C@@H]5CCCN5C(=O)[C@@H]5CSSC[C@@H](C(=O)NCC(=O)O)NC(=O)[C@H](Cc6ccc(O)cc6)NC(=O)CNC(=O)[C@H](CC(N)=O)NC(=O)CNC(=O)[C@H](CCCNC(=N)N)NC(=O)[C@H](CSSC[C@H](NC(=O)[C@H](CC(=O)O)NC(=O)[C@@H]6CCCN6C(=O)CNC(=O)[C@H](CCCNC(=N)N)NC(=O)CNC(=O)[C@@H]6CCCN6C(=O)[C@H]([C@@H](C)O)NC(=O)[C@H](Cc6c[nH]c7ccccc67)NC(=O)[C@H](CC(N)=O)NC(=O)[C@H](CO)NC(=O)[C@H](Cc6ccc(O)cc6)NC(=O)[C@@H]6CCCN6C3=O)C(=O)N[C@@H](CCCNC(=N)N)C(=O)N[C@@H](CCCNC(=N)N)C(=O)N[C@@H](CC(=O)O)C(=O)N[C@@H](CO)C(=O)N[C@@H](CC(=O)O)C(=O)N5)NC(=O)[C@H]([C@@H](C)CC)NC4=O)NC(=O)[C@H](CO)NC(=O)CNC(=O)[C@H](CO)NC(=O)CNC(=O)CN3CCN(CC(=O)O)CCN(CC(=O)O)CCN(CC(=O)O)CC3)C(=O)O)C(=O)N3CCC[C@H]3C(=O)N[C@@H](Cc3ccc(O)cc3)C(=O)N[C@@H](CO)C(=O)N[C@@H](CC(N)=O)C(=O)N[C@@H](Cc3c[nH]c4ccccc34)C(=O)N[C@@H]([C@@H](C)O)C(=O)N3CCC[C@H]3C(=O)NCC(=O)N[C@@H](CCCNC(=N)N)C(=O)NCC(=O)N3CCC[C@H]3C(=O)N[C@@H](CC(=O)O)C(=O)N[C@H]3CSSC[C@H](NC1=O)C(=O)N[C@@H](CCCNC(=N)N)C(=O)NCC(=O)N[C@@H](CC(N)=O)C(=O)NCC(=O)N[C@@H](Cc1ccc(O)cc1)C(=O)N[C@H](C(=O)NCC(=O)O)CSSC[C@H](NC(=O)[C@H](CC(=O)O)NC(=O)[C@H](CO)NC(=O)[C@H](CC(=O)O)NC(=O)[C@H](CCCNC(=N)N)NC(=O)[C@H](CCCNC(=N)N)NC3=O)C(=O)N1CCC[C@H]1C(=O)NCC(=O)N[C@@H](CCCNC(=N)N)C(=O)N2` (single isomer, unassigned) [DOTA-(MC-FA-012)3], the “offrate, times slower compared to MC-FA-012” value is reported as “around 530 times”. In addition, the kon (read-out: ka (1/Ms)) came out at 2.11e+07 M⁻¹ s⁻¹.
